Test results published in ChEMBL document CHEMBL5104106, “Designed hybrid anticancer nuclear-localized peptide inhibits aggressive cancer cell proliferation” (RSC Med Chem, 2022).
Calls of active or inactive are those of the source. The calls are words filed in the database; no cut-off is given here. Where a SMILES comes first, the peptide text is derived from it. The star is where a group is joined. X1 = O=C(c1ccccc1-c1c2ccc(=O)cc-2oc2cc(O)ccc12)*

Assays:
[1] = Drug uptake in human K562 cells at 5 uM incubated for 1 hrs by flow cytometry analysis; format: ADME, cell-based; conditions: k562, 1 h
[2] = Drug uptake in human U-937 cells at 5 uM incubated for 4 hrs by flow cytometric analysis; format: ADME, cell-based; conditions: u-937, 4 h
[3] = Drug uptake in human K562 cells at 5 uM incubated for 4 hrs by Hoechst 33258 staining based fluorescence microscopic analysis; format: ADME, cell-based; conditions: k562, 4 h
K562 [4] = test: Induction of apoptosis in human K562 cells assessed as cell death at 10 to 20 uM incubated for 24 hrs by AnnexinV-FITC/propidium iodide staining based flow cytometric analysis; format: functional; conditions: dose 10-20 µM
K562 [5] = test: Induction of apoptosis in human K562 cells assessed as […] incubated for 24 hrs by AnnexinV-FITC/propidium iodide staining based flow cytometric analysis (reference value: 31 +/- 0.4 %); format: functional
U-937 = test: Induction of apoptosis in human U-937 cells incubated for 24 hrs by AnnexinV-FITC/propidium iodide staining based flow cytometric analysis; format: functional, cell-based; conditions: U-937, 24 h
K562 [6] = test: Induction of apoptosis in human K562 cells incubated for 24 hrs by AnnexinV-FITC/propidium iodide staining based flow cytometric analysis; format: functional, cell-based; conditions: K562, 24 h
K562 [7] = test: Induction of apoptosis in human K562 cells assessed as late apoptotic cells at 1.5625 to 25 uM incubated for 24 hrs by AnnexinV-FITC/propidium iodide staining based flow cytometric analysis; format: functional, cell-based; conditions: dose 1.5625-25 µM
K562 [8] = test: Induction of apoptosis in human K562 cells assessed as early apoptotic cells at 1.5625 to 25 uM incubated for 24 hrs by AnnexinV-FITC/propidium iodide staining based flow cytometric analysis; format: functional, cell-based; conditions: dose 1.5625-25 µM

| Molecule | Drug uptake [1] | IC50 (U-937) [µM] | IC50 (K562 [6]) [µM] | Activity (K562 [5]) [%] | also measured |
| --- | --- | --- | --- | --- | --- |
| CSCC[C@H](NC(=O)[C@H](CC(C)C)NC(=O)[C@H](CCCCN)NC(=O)[C@H](CCC(N)=O)NC(=O)[C@H](CCCNC(=N)N)NC(=O)[C@H](CCCCN)NC(=O)[C@H](CCCNC(=N)N)NC(=O)[C@H](CCC(N)=O)NC(=O)[C@@H](NC(=O)[C@H](CCCNC(=N)N)NC(=O)[C@H](Cc1cnc[nH]1)NC(=O)[C@H](CC(C)C)NC(=O)[C@@H](NC(=O)[C@@H](NC(=O)[C@H](CC(C)C)NC(=O)[C@@H](NC(=O)[C@H](CC(=O)O)NC(=O)[C@H](CC(C)C)NC(=O)[C@H](Cc1ccccc1)NC(=O)c1ccccc1-c1c2ccc(=O)cc-2oc2cc(O)ccc12)[C@@H](C)O)C(C)C)C(C)C)C(C)C)C(=O)N1CCC[C@H]1C(=O)O (X1-FLDTLVVLHRVQRKRQKLMP-OH) | Active |  |  |  | Drug uptake [2]: Active; Drug uptake [3]: Active |
| CC[C@H](C)[C@H](NC(=O)[C@@H]1CCCN1C(=O)[C@@H](NC(=O)[C@@H](C)N)C(C)C)C(=O)N[C@@H](Cc1ccccc1)C(=O)N[C@@H](CCCCN)C(=O)N[C@@H](Cc1ccccc1)C(=O)N[C@@H](CC(C)C)C(=O)N[C@@H](CC(=O)O)C(=O)N[C@H](C(=O)N[C@@H](CC(C)C)C(=O)N[C@H](C(=O)N[C@H](C(=O)N[C@@H](CC(C)C)C(=O)N[C@@H](Cc1cnc[nH]1)C(=O)N[C@@H](CCCNC(=N)N)C(=O)N[C@H](C(=O)N[C@@H](CCC(N)=O)C(=O)N[C@@H](CCCNC(=N)N)C(=O)N[C@@H](CCCCN)C(=O)N[C@@H](CCCNC(=N)N)C(=O)N[C@@H](CCC(N)=O)C(=O)N[C@@H](CCCCN)C(=O)N[C@@H](CC(C)C)C(=O)N[C@@H](CCSC)C(=O)N1CCC[C@H]1C(=O)O)C(C)C)C(C)C)C(C)C)[C@@H](C)O |  |  |  | 44 | Activity (K562 [4]): Active |
| H-FLDTLVVLHR-OH |  | 374 | 30.1 |  |  |

The next lines start with results.

| Drug uptake [1] | IC50 (U-937) [µM] | IC50 (K562 [6]) [µM] | Molecule | Activity (K562 [5]) [%] | also measured |
| --- | --- | --- | --- | --- | --- |
| Active |  |  | CC(C)C[C@H](NC(=O)[C@H](Cc1ccccc1)NC(=O)c1ccccc1-c1c2ccc(=O)cc-2oc2cc(O)ccc12)C(=O)N[C@@H](CC(=O)O)C(=O)N[C@H](C(=O)N[C@@H](CC(C)C)C(=O)N[C@H](C(=O)N[C@H](C(=O)N[C@@H](CC(C)C)C(=O)N[C@@H](Cc1cnc[nH]1)C(=O)N[C@@H](CCCNC(=N)N)C(=O)O)C(C)C)C(C)C)[C@@H](C)O (X1-FLDTLVVLHR-OH) |  |  |
|  | 1390 | 5.58 | H-FLDTLVVLHRVQRKRQKLMP-OH | 36 | Activity (K562 [7]): Active; Activity (K562 [8]): Active |
